Our source for the IC50 values is patent publication US7799933B2, “Sulfonamide derivatives” (Hoffman-La Roche Inc., priority 2006, dated 2010).

Broadly, the IC50 is the concentration at which inhibition is half-maximal. Higher therefore signals weaker potency in that assay.

For this experiment, the target named is T1, L-CPT1 (human liver CPT1) (Homo sapiens, UniProt P50416).
T1 construct: made in house; host or cells: Pichia pastoris strain X-33 (pGAPZB/pGAPZA plasmids); crude cell-free extracts
T1 sequence (P50416 1-773): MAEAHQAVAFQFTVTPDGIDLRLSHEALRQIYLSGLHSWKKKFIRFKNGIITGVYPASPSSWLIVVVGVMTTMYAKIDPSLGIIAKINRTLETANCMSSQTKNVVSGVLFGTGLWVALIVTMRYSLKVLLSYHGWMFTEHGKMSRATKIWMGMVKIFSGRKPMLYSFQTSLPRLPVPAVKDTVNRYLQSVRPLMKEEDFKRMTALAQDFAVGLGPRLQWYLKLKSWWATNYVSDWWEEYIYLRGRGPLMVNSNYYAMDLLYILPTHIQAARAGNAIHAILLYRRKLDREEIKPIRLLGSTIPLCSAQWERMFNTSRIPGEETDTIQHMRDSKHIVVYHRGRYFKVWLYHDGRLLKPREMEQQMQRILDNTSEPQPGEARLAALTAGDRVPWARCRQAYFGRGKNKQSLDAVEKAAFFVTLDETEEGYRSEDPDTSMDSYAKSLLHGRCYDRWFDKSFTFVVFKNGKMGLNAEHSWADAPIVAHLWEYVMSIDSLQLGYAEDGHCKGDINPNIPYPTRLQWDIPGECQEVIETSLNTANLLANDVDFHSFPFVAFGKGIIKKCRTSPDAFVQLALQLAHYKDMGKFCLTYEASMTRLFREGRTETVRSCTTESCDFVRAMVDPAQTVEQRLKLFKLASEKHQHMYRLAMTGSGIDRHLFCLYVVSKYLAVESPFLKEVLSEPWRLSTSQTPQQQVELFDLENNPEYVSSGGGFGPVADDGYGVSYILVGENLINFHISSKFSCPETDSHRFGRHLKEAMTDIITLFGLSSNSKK
As to the kind of experiment: L-CPT1 inhibition, spectrophotometric CPT activity assay with DTNB (Ellman's reagent). In kind it is biochemical. The following applies: human liver CPT1 expressed in P. pastoris, cell extracts; carnitine 500 μM, palmitoyl-CoA 80 μM, DTNB 300 μM, pH 7.4. Background: Ellman's reagent forms a yellow product with free thiols.

Experimental: Human liver and muscle CPT1 cDNAs and rat CPT2 cDNA were subcloned in pGAPZB or pGAPZA, respectively. These plasmids were used to transform P. pastoris strain X-33 via electroporation after the preparation of electrocompetent cells. High copy number clones were selected where necessary using 0.5 or 1 mg/ml Zeocin. Cultures for activity measurements were induced for 16 h in YPD medium (1% yeast extract, 2% peptone, 2% glucose). Crude cell extracts were prepared by disrupting the cells with glass beads or French Press, depending on fermenter sizes. After centrifugation, the cell-free extracts were resuspended in cell breaking buffer (50 mM Tris, pH 7.4, 100 mM KCl, 1 mM EDTA) in the presence of a protease inhibitor cocktail, before aliquoting and freezing at −20° C.
CPT activity was measured using a spectrophotometric assay using 5,5′-dithio-bis-(2-nitrobenzoic acid) (DTNB) also called Ellman's reagent. […] The assay buffer contained 120 mM KCl, 25 mM Tris, pH 7.4, 1 mM EDTA.

For `O=C(O)Cc1ccc(NC(=O)c2ccc3c(c2)N(S(=O)(=O)c2cccc(Cl)c2)CC3)cc1` [Example 7, (4-{[1-(3-Chloro-benzenesulfonyl)-2,3-dihydro-1H-indole-6-carbonyl]-amino}-phenyl)-acetic acid], the IC50 was found to be 125 nM.

As for `COc1ccc(Cl)cc1S(=O)(=O)N1CCc2c(C)cc(C(=O)Nc3ccc(CC(=O)O)cc3)cc21` [Example 14, (4-{[1-(5-Chloro-2-methoxy-benzenesulfonyl)-4-methyl-2,3-dihydro-1H-indole-6-carbonyl]-amino}-phenyl)-acetic acid], the 50% inhibitory concentration (IC50) was 210 nM.
